Usually IC50 stands for the concentration at which inhibition is half-maximal. A low value points to inhibition by little substance.

The structures appear in SMILES notation.

Test [1] addresses T1, BRD9 bromodomain (Flag-BRD9 P133-K239; Swiss Prot Q9H8M2) (Homo sapiens, UniProt Q9H8M2).
T1 construct: His-Flag-BRD9 (P133-K239); Swiss Prot Q9H8M2; His6 with TEV site (mgsshhhhhhenlyfq/) (N, cleaved yes); made in house
T1 sequence (Q9H8M2 133-239): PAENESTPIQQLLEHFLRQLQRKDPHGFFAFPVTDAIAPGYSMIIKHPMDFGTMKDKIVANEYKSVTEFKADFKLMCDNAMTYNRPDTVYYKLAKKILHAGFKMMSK
In words: BRD9 Bromodomain TR-FRET Competition Binding Assay. Conditions: competition with biotinylated BRD9 ligand; 90 minutes at room temperature. The protocol:
Procedure: His-Flag-BRD9 (P133-K239; Swiss Prot Q9H8M2; SEQ ID NO:1 mgsshhhhhhenlyfq/gdykddddkgslevlfqg/[…] […]) was cloned, expressed, purified, and then treated with TEV protease. Cleaved His tag was removed by purification. The binding of a biotinylated small molecule ligand of BRD9 was assessed via the LANCE® TR-FRET platform (PerkinElmer), and the compounds were assayed for inhibitory activity against this interaction.
Results: A mixture of biotinylated-ligand and SureLight™ Allophycocyanin-Streptavidin (APC-SA, PerkinElmer AD0201) in 50 mM HEPES (pH 7.4), 50 mM NaCl, 1 mM TCEP (pH 7), 0.01% (v/v) Tween-20, 0.01% (w/v) bovine serum albumin was added to a white 384-well PerkinElmer Proxiplate Plus plate. DMSO or 3-fold serially diluted compounds were then added to the Proxiplate followed by addition of Flag-BRD9. After a 10-minute incubation at room temperature, Eu-W1024 anti-FLAG (PerkinElmer, AD0273) was added. The final reaction mixture that contained 3.75 nM biotinylated ligand, 3 nM Flag-BRD9, 7.5 nM SureLight™ Allophycocyanin-Streptavidin, and 0.2 nM Eu-W1024 anti-FLAG was incubated at room temperature for 90 minutes.
The plates were then read on a PerkinElmer Envision plate reader to determine the ratio of emission at 665 nm over 615 nm. […]
Background: In TR-FRET formats the signal depends on donor and acceptor labels being close together.

Test [2] addresses T2, Nanoluciferase-BRD9 fusion protein (3×FLAG-NLuc-BRD9) in SYO-1 cells (Homo sapiens, UniProt Q9H8M2).
T2 construct: expressed in transfected cells; host or cells: SYO-1
T2 sequence (Q9H8M2 1-597): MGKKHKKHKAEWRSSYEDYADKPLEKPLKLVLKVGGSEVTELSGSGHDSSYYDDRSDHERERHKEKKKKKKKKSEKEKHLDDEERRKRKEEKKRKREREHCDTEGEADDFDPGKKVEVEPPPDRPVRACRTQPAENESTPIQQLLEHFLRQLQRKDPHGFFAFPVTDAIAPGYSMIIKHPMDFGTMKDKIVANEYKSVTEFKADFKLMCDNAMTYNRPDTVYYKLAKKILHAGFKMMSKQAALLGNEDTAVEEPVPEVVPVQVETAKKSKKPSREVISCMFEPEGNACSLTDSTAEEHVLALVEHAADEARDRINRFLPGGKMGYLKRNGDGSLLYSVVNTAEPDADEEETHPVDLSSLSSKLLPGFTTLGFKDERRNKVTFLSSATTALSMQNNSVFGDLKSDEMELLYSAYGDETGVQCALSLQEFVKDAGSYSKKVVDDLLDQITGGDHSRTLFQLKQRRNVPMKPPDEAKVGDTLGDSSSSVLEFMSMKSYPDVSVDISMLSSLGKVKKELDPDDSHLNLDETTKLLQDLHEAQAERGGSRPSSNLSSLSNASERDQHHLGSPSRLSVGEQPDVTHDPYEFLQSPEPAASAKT
In words: SYO1 BRD9 NanoLuc Degradation Assay. It is filed as cell-based. Conditions: 6 hours; SYO-1 cells expressing 3×FLAG-NLuc-BRD9; top dose 1 μM; read-out: SYO1 BRD9-NanoLuc degradation IC50. An outline of the steps:
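NanoLuc signal, read by Nano-Glo luminescence after 6 h compound exposure, gives % inhibition against DMSO-treated cells (high control) and cells given 1 μM of a standard BRD9 degrader (low control). Test compounds ran as 10-point 3-fold series, top 1 μM final, in duplicate on SYO-1 cells stably expressing 3×FLAG-NLuc-BRD9.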

In test [1], `COc1cc(-c2cn(C)c(=O)c3cnc(N(C)C)cc23)cc(OC)c1CN1CC(C(=O)NCCCCCOc2cccc3c2C(=O)N(C2CCC(=O)NC2=O)C3=O)C1` (stereo not shown) [Compound D1, 1-([4-[6-(dimethylamino)-2-methyl-1-oxo-1,2-dihydro-2,7-naphthyridin-4-yl]-2,6-dimethoxyphenyl]methyl)-N-(5-[[2-(2,6-dioxopiperidin-3-yl)-1,3-dioxo-2,3-dihydro-1H-isoindol-4-yl]oxy]pentyl)azetidine-3-carboxamide] had a concentration for half-maximal inhibition (IC50) below 10 nM. Besides, the DC50 in test [2] was below 10 nM.
`COc1cc(-c2cn(C)c(=O)c3cnc(N(C)C)cc23)cc(OC)c1CN1CC[C@H]1CN(C)Cc1cccc2c1C(=O)N(C1CCC(=O)NC1=O)C2=O` (stereo partly drawn) [Compound D2, 4-(((((S)-1-(4-(6-(dimethylamino)-2-methyl-1-oxo-1,2-dihydro-2,7-naphthyridin-4-yl)-2,6-dimethoxybenzyl)azetidin-2-yl)methyl)(methyl)amino)methyl)-2-(2,6-dioxopiperidin-3-yl)isoindoline-1,3-dione] yielded a concentration for half-maximal inhibition (IC50) in test [1] below 10 nM. Also, the DC50 in test [2] is at least 100 nM.
The like results for `COc1cc(-c2cn(C)c(=O)c3cnc(N(C)C)cc23)cc(OC)c1CN1CC(N(C)Cc2cccc3c2C(=O)N(C2CCC(=O)NC2=O)C3=O)C1` (stereo not shown) [Compound D3, 4-([[1-([4-[6-(dimethylamino)-2-methyl-1-oxo-2,7-naphthyridin-4-yl]-2,6-dimethoxyphenyl]methyl)azetidin-3-yl](methyl)amino]methyl)-2-(2,6-dioxopiperidin-3-yl)isoindole-1,3-dione formic acid] were, in that order, below 10 nM and at least 10 nM.
The like results for `COc1cc(-c2cn(C)c(=O)c3cnc(N(C)C)cc23)cc(OC)c1CN1CC[C@H]1C(=O)N(C)Cc1cccc2c1C(=O)N(C1CCC(=O)NC1=O)C2=O` (stereo partly drawn) [Compound D4, (2S)-1-(4-(6-(dimethylamino)-2-methyl-1-oxo-1,2-dihydro-2,7-naphthyridin-4-yl)-2,6-dimethoxybenzyl)-N-((2-(2,6-dioxopiperidin-3-yl)-1,3-dioxoisoindolin-4-yl)methyl)-N-methylazetidine-2-carboxamide formic acid] were, in that order, below 10 nM and at least 100 nM.
In the same order, the values of `COc1cc(-c2cn(C)c(=O)c3cnc(NCCCCCCCCNC(=O)COc4cccc5c4C(=O)N(C4CCC(=O)NC4=O)C5=O)cc23)cc(OC)c1CN(C)C` (stereo not shown) [Compound D5, N-[8-[(5-[4-[(dimethylamino)methyl]-3,5-dimethoxyphenyl]-7-methyl-8-oxo-2,7-naphthyridin-3-yl)amino]octyl]-2-[[2-(2,6-dioxopiperidin-3-yl)-1,3-dioxoisoindol-4-yl]oxy]acetamide formic acid] are at least 10 nM and at least 100 nM.
The compound `COc1cc(-c2cn(C)c(=O)c3cnc(NCCCCCOc4cccc5c4C(=O)N(C4CCC(=O)NC4=O)C5=O)cc23)c(OC)cc1CN(C)C` (stereo not shown) [Compound D6, 4-((5-((5-(4-((dimethylamino)methyl)-2,5-dimethoxyphenyl)-7-methyl-8-oxo-7,8-dihydro-2,7-naphthyridin-3-yl)amino)pentyl)oxy)-2-(2,6-dioxopiperidin-3-yl)isoindoline-1,3-dione formic acid] came in with an IC50 in test [1] of at least 10 nM. Besides, in test [2], the DC50 is at least 10 nM.
As for `CNc1cc2c(=O)n(C)cc(-c3cc(OC)c(CN4CC(C(=O)NCCCCCOc5cccc6c5C(=O)N(C5CCC(=O)NC5=O)C6=O)C4)c(OC)c3)c2cn1` (stereo not shown) [Compound D7, 1-([2,6-dimethoxy-4-[2-methyl-7-(methylamino)-1-oxo-2,6-naphthyridin-4-yl]phenyl]methyl)-N-(5-[[2-(2,6-dioxopiperidin-3-yl)-1,3-dioxoisoindol-4-yl]oxy]pentyl)azetidine-3-carboxamide formic acid], the half-maximal inhibitory concentration (IC50) in test [1] was below 10 nM. Further, the DC50 in test [2] was below 10 nM.
On to `COc1cc(-c2cn(C)c(=O)c3cc(NCCCCCCCCNC(=O)COc4cccc5c4C(=O)N(C4CCC(=O)NC4=O)C5=O)ncc23)cc(OC)c1CN(C)C` (stereo not shown) [Compound D8, N-[8-[(8-[4-[(dimethylamino)methyl]-3,5-dimethoxyphenyl]-6-methyl-5-oxo-2,6-naphthyridin-3-yl)amino]octyl]-2-[[2-(2,6-dioxopiperidin-3-yl)-1,3-dioxoisoindol-4-yl]oxy]acetamide], for which the IC50 in test [1] is at least 10 nM. For the same compound, the DC50 in test [2] is at least 10 nM.
In turn, `COc1cc(-c2cn(C)c(=O)c3cc(NC(=O)CCOCCOCCNc4cccc5c4C(=O)N(C4CCC(=O)NC4=O)C5=O)ncc23)cc(OC)c1CN(C)C` (stereo not shown) [Compound D9, N-(8-[4-[(dimethylamino)methyl]-3,5-dimethoxyphenyl]-6-methyl-5-oxo-2,6-naphthyridin-3-yl)-3-[2-(2-[[2-(2,6-dioxopiperidin-3-yl)-1,3-dioxoisoindol-4-yl]amino]ethoxy)ethoxy]propanamide] gave a concentration for half-maximal inhibition (IC50) in test [1] of at least 100 nM. Further, the DC50 in test [2] was at least 1000 nM.
As for `COc1cc(-c2cn(C)c(=O)c3cnc(NCCOCCOCCNc4cccc5c4C(=O)N(C4CCC(=O)NC4=O)C5=O)cc23)cc(OC)c1CN(C)C` (stereo not shown) [Compound D10, 4-[[2-(2-[2-[(5-[4-[(dimethylamino)methyl]-3,5-dimethoxyphenyl]-7-methyl-8-oxo-2,7-naphthyridin-3-yl)amino]ethoxy]ethoxy)ethyl]amino]-2-(2,6-dioxopiperidin-3-yl)isoindole-1,3-dione formic acid], the IC50 in test [1] is at least 10 nM. In test [2], the DC50 is at least 10 nM.
`COc1cc(-c2cn(C)c(=O)c3cnc(NC(=O)CCOCCOCCNc4cccc5c4C(=O)N(C4CCC(=O)NC4=O)C5=O)cc23)cc(OC)c1CN(C)C` (stereo not shown) [Compound D11, N-(5-(4-((dimethylamino)methyl)-3,5-dimethoxyphenyl)-7-methyl-8-oxo-7,8-dihydro-2,7-naphthyridin-3-yl)-3-(2-(2-((2-(2,6-dioxopiperidin-3-yl)-1,3-dioxoisoindolin-4-yl)amino)ethoxy)ethoxy)propanamide formic acid] gave an IC50 in test [1] of at least 10 nM. Besides, the DC50 in test [2] was at least 100 nM.
The like results for `COc1cc(-c2cn(C)c(=O)c3cc(N(C)CC(=O)NCCCCCOc4cccc5c4C(=O)N(C4CCC(=O)NC4=O)C5=O)ncc23)cc(OC)c1CN(C)C` (stereo not shown) [Compound D12, 2-[(8-[4-[(dimethylamino)methyl]-3,5-dimethoxyphenyl]-6-methyl-5-oxo-2,6-naphthyridin-3-yl)(methyl)amino]-N-(5-[[2-(2,6-dioxopiperidin-3-yl)-1,3-dioxoisoindol-4-yl]oxy]pentyl)acetamide formic acid] were, in that order, below 10 nM and at least 10 nM.
In the same order, the values of `COc1cc(-c2cn(C)c(=O)c3cc(NC(=O)CCOCCOCCNc4ccc5c(c4)C(=O)N(C4CCC(=O)NC4=O)C5=O)ncc23)cc(OC)c1CN(C)C` (stereo not shown) [Compound D13, N-(8-[4-[(dimethylamino)methyl]-3,5-dimethoxyphenyl]-6-methyl-5-oxo-2,6-naphthyridin-3-yl)-3-[2-(2-[[2-(2,6-dioxopiperidin-3-yl)-1,3-dioxoisoindol-5-yl]amino]ethoxy)ethoxy]propanamide formic acid] are at least 100 nM and at least 1000 nM.
In the case of `COc1cc(-c2cn(C)c(=O)c3cnc(NC(=O)CCOCCOCCNc4ccc5c(c4)C(=O)N(C4CCC(=O)NC4=O)C5=O)cc23)cc(OC)c1CN(C)C` (stereo not shown) [Compound D14, N-(5-(4-((dimethylamino)methyl)-3,5-dimethoxyphenyl)-7-methyl-8-oxo-7,8-dihydro-2,7-naphthyridin-3-yl)-3-(2-(2-((2-(2,6-dioxopiperidin-3-yl)-1,3-dioxoisoindolin-5-yl)amino)ethoxy)ethoxy)propanamide formic acid], in test [1], the IC50 was at least 10 nM. In addition, the DC50 in test [2] is at least 100 nM.

The values are drawn from patent US12391686B2, “Compounds and uses thereof” (Foghorn Therapeutics Inc., priority 2019, dated 2025).
